Experimental data: patent publication US12622912B2, “Application of pyrido[1,2-a]pyrimidinone analog” (GUANGZHOU JOYO PHARMATECH CO., LTD, priority 2021, dated 2026)
Read-outs that look alike come from different tables or passages of the source.

Test system: T47D PIK3CA-mutated breast cancer cell line
Experiment: CTG cell proliferation, T47D
Format: cell-based
Details: 72 hours, read-out: Absolute IC50
Excerpt: (2) Reagents • 1) FBS (fetal bovine serum) (purchased from ExCell, product number: FND500); • 2) DMEM medium (purchased from Gibco, product number: C11995500BT); • 3) Insulin (purchased from Gibco, product number: EPX010-12003-901); • 4) RPMI1640 medium (purchased from Hyclone, product number: SH30809.01); • 5) MEM medium (purchased from Hyclone, product number: SH30024.01). (3) Test Article and Positive Control Article • Test article: compound I; • Positive control article: Cisplatin, Molecular weight: 300.05; Solvent: PBS (phosphate buffer saline); Storage condition: 2-8° C.; Supplier: Qilu Pharmaceutical. (4) The CTG Method was Used to Determine the Cell Proliferation IC50 of the Compound.
Step 1: Cells in exponential growth phase were harvested, and viable cells were counted with a Vi-Cell XR cytometer. The cell suspension was adjusted to an appropriate concentration with medium. 90 μL of cell suspension was added to each well of a 96-well cell culture plate, and the final cell concentration was 1500-6000 cells/well.
Step 2: The initial concentration of administration of compound I was 3 μM, and the initial concentration of administration of the control drug Cisplatin was 100 μM, and serially diluted 3-fold, a total of 9 concentration gradients and a DMSO control, the final concentration of DMSO in each well was 0.1%, placed in a 37° C., 5% CO2 incubator for 72 hours.
Step 3: After 72 hours of drug treatment, 50 μL (½ culture volume) CTG solution that was melted and equilibrated to room temperature was added to each well according to the CTG operation instruction. […] After 10 minutes, the fluorescence signal value was measured with an Envision2104 plate reader.
Cell survival rate was calculated using the formula: Vsample/Vvehicle control×100%. Where, Vsample was the reading of the drug treatment group, and Vvehicle control was the average value of the solvent control group. GraphPad Prism 5.0 software was used, and a S-type dosage-survival rate curve was drawn using a nonlinear regression model and IC50 value was calculated.

IC50 (listed as compound I): < 1000 nM | IC50: 17 nM
Structure (SMILES): COCCOc1cnc2ccc(-c3cnc(OC)c(NS(=O)(=O)c4sc(C)nc4C)c3)cn2c1=O [Compound I]
